One may read the IC50 as the concentration at which inhibition is half-maximal.

Series [1] has as its target recombinant human p38 αMAP kinase (Homo sapiens, UniProt Q16539). Briefly: Study on p38 αMAP kinase inhibitory activity (ATF-2 phosphorylation, Alpha Screen). The following applies: phosphorylation of biotinylated ATF2 by recombinant human p38 αMAP kinase, 30° C. for 30 minutes. It counts as biochemical. How it is done: (1) Study on p38 αMAP Kinase Inhibitory Activity
Using activation transcription factor 2 (hereinafter abbreviated as ATF-2) which is a substrate for p38 αMAP kinase, the inhibitory action of the compounds of the present invention was investigated on the phosphorylation by a recombinant human p38 αMAP kinase.
A kinase buffer (25 mM Tris-HCl (pH 7.5), 5 mM β-glycerophosphate, 2 mM dithiothreitol, 0.1 mM Na3VO4, 10 mM MgCl2) containing a recombinant human p38 αMAP kinase was added to a 384-well plate (5 μL)(6.25 μg protein/well) for fluorescence measurement. After addition of a kinase buffer (5 μL) containing the compound of the present invention, the resulting mixture was incubated at room temperature for 20 minutes. A substrate mixture (5 μL) of biotinylated ATF2 of 5 μg/mL (Upstate Biotechnology #14-432), adenosine triphosphate (90 μmol/L)(Sigma #FL-AAS) and anti-phosphorylated ATF2 antibody (20-fold dilution)(Cell Signaling Technology #9221L) prepared separately was added thereto, and enzyme reaction was carried out at 30° C. for 30 minutes. After the reaction, Herpes buffer (5 μL) containing 0.25% BSA and 100 mM EDTA was added to stop the enzyme reaction. The amount of a complex of the phosphorylated ATF2 and anti-phosphorylated ATF2 antibody produced by the reaction was measured using an Alpha Screen™ Rabbit Detection kit (Packard #6760607).
The p38 αMAP kinase inhibitory activity, which is the effect of the compound of the present invention, was calculated as an inhibition rate (%) according to the following equation: Inhibition rate (%)={(AC minus AX)/(AC minus AB)}×100 wherein AB is a measured value without addition of the enzyme; AC is a measured value with addition of the enzyme in the absence of a test compound; and AX is a measured value with addition of the enzyme in the presence of a test compound.
Inhibition rate of compounds with each concentration was calculated, and a value indicating 50% inhibition (IC50) was determined from the inhibition curve.

Series [2] relates to TNF-α production in THP-1 (human monocyte cell line). The series is described as follows: Inhibitory activity against TNF-α production using human cell lines (LPS-stimulated THP-1). It is filed as cell-based. As to conditions: 1.5 h, THP-1 cells stimulated by LPS, cultured for 90 minutes, TNF-α by ELISA. Here is the method:
(2) Inhibitory Activity Against TNF-α Production Using Human Cell Lines
Using THP-1 which is a human monocyte cell line, the inhibitory effect of the compound of the present invention against TNF-α production stimulated by lipopolysaccharide (LPS) was studied.
Each 50 μL of lipopolysaccharide (LPS; Difco #3120-25-0) prepared to a concentration of 40 ng/mL using RPMI-1640 medium containing 10% fetal calf serum (hereinafter abbreviated as RPMI-1640) and RPMI-1640 containing the compound of the present invention was added to a 96-well plate for cell culture. One hundred μL of the cell suspension of THP-1 (Dainippon Pharmaceutical Co., Ltd, #06-202) prepared to a cell density of 2×10^6 cells/mL using RPMI-1640 was added and cultured for 90 minutes at 37° C. in an incubator (5% CO2, 95% air). After completion of the reaction, the culture medium supernatant was recovered and the amount of produced TNF-α was measured using an ELISA kit (Invitrogen, #850090192).
The inhibitory activity against TNF-α production, which is the effect of the compound of the present invention, was calculated as an inhibition rate (%) by the following equation: Inhibition rate (%)={(AC minus AX)/(AC minus AB)}×100 wherein AB is a measured value without LPS induction; AC is a measured value with LPS induction in the absence of a test compound; and AX is a measured value with LPS induction in the presence of a test compound. Inhibition rate of compounds with each concentration was calculated, and a value indicating 50% inhibition (IC50) was determined from the inhibition curve.
Background: An ELISA detects its analyte on a solid surface through an enzyme-linked reagent.

The test system of series [3] is TNF-α production induced by lipopolysaccharide (LPS). Briefly: Rat cytokine-production model (LPS-induced TNF-α production in vivo). The following applies: dose of 10 mg/kg orally; LPS 10 μg/kg intravenously after 2.0 hours; plasma ninety minutes after LPS. How it is done: (3) Rat Cytokine-Production Model
The in vivo effect of the compound of the present invention was studied on TNF-α production induced by lipopolysaccharide (LPS) in rats.
A medium containing the compound of the present invention was orally administered to male […] (Charles River Japan, Inc.), and after 2.0 hours, lipopolysaccharide (LPS, 055:B5, Difco) was intravenously administered at the dose of 10 μg/kg (5 animals/group). Only a medium was orally administered to a control group (5 animals). Ninety minutes after the LPS treatment, heparinized blood collection was performed via the abdominal cava vein under anesthesia with ether, and blood plasma was obtained by centrifugation (12,000 rpm, 3 minutes, 4° C.). The obtained blood plasma sample was stored at −80° C. until it was used. TNF-α in the blood plasma was measured using an ELISA kit from Genzyme/Techne (#10516).
The inhibitory activity of the compound of the present invention against TNF-α production was calculated as an inhibition rate (%) according to the following equation: Inhibition rate (%)={(AC minus AX)/AC}×100 wherein AC is a measured value in case where no test compound was administered under LPS induction, and AX is a measured value in case where a test compound was administered under LPS induction.

The subject of a further series is Human CYP3A4. The series is described as follows: Evaluation of human CYP3A4 induction activity (HepG2 cells, hPXR/CYP3A4 luciferase reporter). As to conditions: concentration of 10 μM, rifampicin (10 μmol/L) set to 100%. It counts as in vitro ADME. How it is done: (4) Evaluation of Human CYP3A4 Induction Activity
HepG2 cells were cultured in a 5% CO2 incubator at 37° C., using a medium [MEM(+)] prepared by adding 1/100-fold amount of non-essential amino acids for MEM Eagle's medium (100×, ICN, #1681049), Antibiotic-Antimycotic (100×, Gibco, #15240-096), L-glutamine 200 mM (100×, Gibco, #25030-081) and 1/10-fold amount of fetal bovine serum (Sigma, #F9423) to a minimum essential medium Eagle (Mod.) with Earle's salts without L-glutamine. The medium was exchanged once every 2 to 3 days. About one-fifth of the cells which were cultured to a confluent state were passaged once a week. HepG2 cells which were cultured to almost confluent state in a 225 cm^2 culture flask were inoculated to a 24-well plate (Iwaki, #3820-024) to a concentration of 5×10^4 cells/MEM(+) of 500 μL/well. […] Twenty μL/well of the prepared cell lysis solution was transferred to a 96-well white plate (Perkin Elmer, #23300), and using a luminometer (Berthold Japan, Microlumat LB96P), each chemical luminescence was measured for 2 to 14 seconds after addition of luciferase assay reagent II [(LARII), 100 μL/well)] and for 2 to 14 seconds after addition of Stop & Glo reagent, 100 μL/well). […]
The CYP3A4 induction activity was calculated by setting a rise in transcription activity of CYP3A4 to 100% when using rifampicin (10 μmol/L) as a positive control drug.
For orientation: A reporter such as luciferase makes a cellular process visible.

The target in a further series is Human CYP2C9 (Homo sapiens, UniProt P11712). Briefly: Evaluation of human CYP2C9 inhibitory activity. It is filed as in vitro ADME. How it is done:
(5) Evaluation of Human CYP2C9 Inhibitory Activity
The CYP2C9 inhibitory activity of the compound of the present invention was evaluated by enhancing measurement precision and improving measurement sensitivity on the basis of Sato et. al method [Pharmacokinetics, Xenobio. Metabol. and Dispos., 16(2), 115-126 (2001)].

recombinant human p38 αMAP kinase, sequence (Q16539 whole entry): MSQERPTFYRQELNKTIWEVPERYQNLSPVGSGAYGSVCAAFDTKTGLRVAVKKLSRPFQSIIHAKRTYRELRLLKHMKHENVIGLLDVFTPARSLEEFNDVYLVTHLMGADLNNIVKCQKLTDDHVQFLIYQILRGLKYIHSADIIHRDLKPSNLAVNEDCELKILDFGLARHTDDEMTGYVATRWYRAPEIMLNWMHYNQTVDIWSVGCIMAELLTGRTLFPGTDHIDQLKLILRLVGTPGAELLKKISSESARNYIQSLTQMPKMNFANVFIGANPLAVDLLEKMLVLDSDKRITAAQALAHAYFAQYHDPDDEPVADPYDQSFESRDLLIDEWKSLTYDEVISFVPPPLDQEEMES
Human CYP2C9, sequence (P11712 whole entry): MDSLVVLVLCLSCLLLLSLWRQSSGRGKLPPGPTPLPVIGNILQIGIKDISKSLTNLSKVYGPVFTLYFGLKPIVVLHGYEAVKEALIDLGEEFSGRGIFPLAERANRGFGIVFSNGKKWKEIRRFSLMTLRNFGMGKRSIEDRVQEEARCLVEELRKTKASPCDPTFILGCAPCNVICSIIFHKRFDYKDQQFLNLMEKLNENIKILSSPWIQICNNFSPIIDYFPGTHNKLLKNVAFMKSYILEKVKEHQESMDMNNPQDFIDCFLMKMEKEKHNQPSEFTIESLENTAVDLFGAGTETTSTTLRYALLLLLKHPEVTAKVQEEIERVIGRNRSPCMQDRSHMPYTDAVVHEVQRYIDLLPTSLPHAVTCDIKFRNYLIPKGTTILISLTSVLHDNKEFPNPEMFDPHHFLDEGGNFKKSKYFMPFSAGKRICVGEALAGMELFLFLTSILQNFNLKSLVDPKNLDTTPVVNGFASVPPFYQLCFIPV

`Cc1ccc(-n2nc(C(C)(C)C)cc2NC(=O)Nc2cc(CN3CCN(C(=O)c4ccc(CN5CCN(C)CC5)cc4)CC3)ccc2Cl)cc1` [13(2), N-[3-t-butyl-1-(4-methylphenyl)-1H-pyrazol-5-yl]-N′-{2-chloro-5-[(4-{4-[(4-methylpiperazin-1-yl)methyl]benzoyl}piperazin-1-yl)methyl]phenyl}urea]: the IC50 in series [1] came to 2.5 nM; in series [2] it was 21 nM.
Take `Cc1ccc(-n2nc(C(C)(C)C)cc2NC(=O)Nc2ccc(CN3CCC(=O)N(c4ccccc4C)C3)cc2)cc1` [Example 4(1), N-[3-t-butyl-1-(4-methylphenyl)-1H-pyrazol-5-yl]-N′-(4-{[3-(2-methylphenyl)-4-oxotetrahydropyrimidin-1(2H)-yl]methyl}phenyl)urea]: the IC50 in series [1] came to 2.9 nM; in series [2], 2.3 nM. For the same compound, in series [3], the “inhibition against in vivo TNF-α production induced by LPS stimulation” value is reported as 72.8%.
As for `Cc1ccc(-n2nc(C(C)(C)C)cc2NC(=O)Nc2ccc(CN3CCN(C(=O)c4ccc(CN5CCN(C)CC5)cc4)CC3)cc2C)cc1` [Example 13(1), N-[3-t-butyl-1-(4-methylphenyl)-1H-pyrazol-5-yl]-N′-{2-methyl-4-[(4-{4-[(4-methylpiperazin-1-yl)methyl]benzoyl}piperazin-1-yl)methyl]phenyl}urea], the IC50 turned out to be 5.6 nM in series [1], 35 nM in series [2] and 21000 nM against Human CYP2C9. In addition, in the series with Human CYP3A4, the CYP3A4 induction activity entry is on record as “did not show CYP3A4 induction activity at all”.
Take `Cc1ccc(-n2nc(C(C)(C)C)cc2NC(=O)Nc2ccc(OC3CCN(C(=O)c4ccc(CN5CCN(C)CC5)cc4)CC3)cc2C)cc1` [Example 17, N-[3-t-butyl-1-(4-methylphenyl)-1H-pyrazol-5-yl]-N′-{2-methyl-4-[(1-{4-[(4-methylpiperazin-1-yl)methyl]benzoyl}piperidin-4-yl)oxy]phenyl}urea]: the results for the half-maximal inhibitory concentration (IC50) in series [1] and in series [2] were 3.8 nM and 17 nM, respectively.
